Assay results published in patent US11731972B2, “Spiro compounds as glycosidase inhibitors” (Asceneuron SA, priority 2018, dated 2023).

Biological target: His-Tagged hOGA (human O-GlcNAcase) (Homo sapiens (Human), UniProt O60502)
Test: Human O-GlcNAcase enzyme inhibition assay (Example B01)
Type: biochemical
Settings: OGA enzyme inhibition assay; FL-GlcNAc substrate, 60 min, room temperature, pH 6.5
Protocol: Example B01: Human O-GlcNAcase Enzyme Inhibition Assay
5 μl of the appropriate concentration of a solution of inhibitor in McIlvaine's Buffer (pH 6.5) in 2% DMSO (for a dose response curve calculation) is added into each well of a 384-well plate (Greiner, 781900). Then, 20 nM of His-Tagged hOGA and 10 μM of FL-GlcNAc (Fluorescein mono-beta-D-(2-deoxy-2-N-acetyl) glucopyranoside; Marker Gene Technologies Inc, M1485) were added to the 384-well plate for a final volume of 20 μl. After incubation for 60 min at room temperature, the reaction was terminated by the addition of 10 μL of stop buffer (200 mM glycine, pH 10.75). The level of fluorescence (λexc 485 nm; (λemm 520 nm) was read on a PHERAstar machine. The amount of fluorescence measured was plotted against the concentration of inhibitor to produce a sigmoidal dose response curve to calculate an IC50. All individual data was corrected by subtraction of the background (Thiamet 3 uM=100% inhibition) whilst 0.5% DMSO was considered as the control value (no inhibition).

Chain of His-Tagged hOGA (human O-GlcNAcase) (O60502 whole entry): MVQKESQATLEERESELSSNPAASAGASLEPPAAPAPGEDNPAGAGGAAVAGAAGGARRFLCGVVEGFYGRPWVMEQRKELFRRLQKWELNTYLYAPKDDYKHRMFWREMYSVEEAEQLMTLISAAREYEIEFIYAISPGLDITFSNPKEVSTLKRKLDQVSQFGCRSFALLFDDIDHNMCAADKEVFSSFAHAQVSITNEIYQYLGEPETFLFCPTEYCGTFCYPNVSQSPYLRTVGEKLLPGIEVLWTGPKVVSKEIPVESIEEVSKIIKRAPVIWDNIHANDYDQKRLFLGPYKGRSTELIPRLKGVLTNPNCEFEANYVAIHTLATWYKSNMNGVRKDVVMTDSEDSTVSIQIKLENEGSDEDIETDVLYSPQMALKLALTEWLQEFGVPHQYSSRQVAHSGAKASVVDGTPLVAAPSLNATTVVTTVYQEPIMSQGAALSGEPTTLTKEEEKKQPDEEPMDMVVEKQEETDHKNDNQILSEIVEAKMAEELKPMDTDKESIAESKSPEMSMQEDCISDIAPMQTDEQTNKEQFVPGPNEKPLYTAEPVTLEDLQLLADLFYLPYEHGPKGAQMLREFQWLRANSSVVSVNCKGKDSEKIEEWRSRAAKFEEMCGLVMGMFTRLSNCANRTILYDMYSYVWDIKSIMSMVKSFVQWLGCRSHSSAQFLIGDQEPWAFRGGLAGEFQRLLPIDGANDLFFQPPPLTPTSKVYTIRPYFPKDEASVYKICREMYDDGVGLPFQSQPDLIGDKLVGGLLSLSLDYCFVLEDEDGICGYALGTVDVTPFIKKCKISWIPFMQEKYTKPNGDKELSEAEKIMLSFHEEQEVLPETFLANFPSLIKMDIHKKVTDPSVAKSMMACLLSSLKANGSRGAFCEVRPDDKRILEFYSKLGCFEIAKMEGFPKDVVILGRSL

IC50 [nM] | Compound
50 to 200 | CC(=O)Nc1ncc(CN2CCC3(CC2)NC(=O)N(c2cc(C)nc(C)c2)C3=O)s1 (racemic) [IA2]
50 to 200 | Cc1ccc(N2C(=O)NC3(CCN(C(C)c4ccc5scnc5c4)CC3)C2=O)cn1 (racemic) [Example 61]
200 to 1000 | CC(c1ccc2scnc2c1)N1CCC2(CC1)NC(=O)N(C)C2=O (racemic) [Example 1, 8-(1-(benzo[d]thiazol-5-yl)ethyl)-3-methyl-1,3,8-triazaspiro[4.5]decane-2,4-dione]
50 to 200 | CC(c1ccc2scnc2c1)N1CCC2(CC1)NC(=O)N(c1cncnc1)C2=O (racemic) [Example 62]
50 to 200 | COCCN1C(=O)NC2(CCN(C(C)c3ccc4c(c3)OCC4)CC2)C1=O (racemic) [Example 6, 8-(1-(2,3-dihydrobenzofuran-6-yl)ethyl)-3-(2-methoxyethyl)-1,3,8-triazaspiro[4.5]decane-2,4-dione]
1000 to 10000 | CC(c1ccc2scnc2c1)N1CCC2(CC1)CC(=O)N(c1ncccn1)C2 (racemic) [Example 73]
200 to 1000 | CC(=O)Nc1ncc(CN2CCC3(CC2)CC(=O)N(c2ccc(C#N)cc2)C3)s1 (racemic) [IA7]
200 to 1000 | CC(c1ccc2scnc2c1)N1CCC2(CC1)CN(c1ccc(F)cc1)C(=O)N2 (racemic) [Example 36, 8-(1-(benzo[d]thiazol-5-yl)ethyl)-3-(4-fluorophenyl)-1,3,8-triazaspiro[4.5]decan-2-one]
< 50 | CSc1cnc(N2CC3(CCN(Cc4cnc(NC(C)=O)s4)CC3)NC2=O)nc1 (racemic) [IA6]
1000 to 10000 | CC(c1ccc2scnc2c1)N1CCC2(CC1)CC(=O)N(c1ccc(C#N)cc1)C2 (racemic) [Example 15, 4-(8-(1-(benzo[d]thiazol-5-yl)ethyl)-3-oxo-2,8-diazaspiro[4.5]decan-2-yl)benzonitrile]
1000 to 10000 | Cc1cc(N2CC3(CCN(C(C)c4ccc5c(c4)OCC5)CC3)CC2=O)n2nccc2n1 (racemic) [Example 16, 8-(1-(2,3-dihydrobenzofuran-6-yl)ethyl)-2-(5-methylpyrazolo[1,5-a]pyrimidin-7-yl)-2,8-diazaspiro[4.5]decan-3-one]
1000 to 10000 | CC(c1ccc2c(c1)OCC2)N1CCC2(CC1)CC(=O)N(c1ccc(C#N)cc1)C2 (racemic) [Example 19, 4-(8-(1-(2,3-dihydrobenzofuran-6-yl)ethyl)-3-oxo-2,8-diazaspiro[4.5]decan-2-yl)benzonitrile]
200 to 1000 | CC(c1ccc2scnc2c1)N1CCC2(CCN(c3ccc(C#N)cc3)C2=O)CC1 (racemic) [Example 27, 4-(8-(1-(benzo[d]thiazol-5-yl)ethyl)-1-oxo-2,8-diazaspiro[4.5]decan-2-yl)benzonitrile]

Continued, compound first:

Compound | IC50 [nM]
CC(c1ccc2scnc2c1)N1CCC2(CC1)CN(c1ccc(C#N)cc1)C(=O)N2 (racemic) [Example 34, 4-(8-(1-(benzo[d]thiazol-5-yl)ethyl)-2-oxo-1,3,8-triazaspiro[4.5]decan-3-yl)benzonitrile] | 50 to 200
CC(c1ccc2scnc2c1)N1CCC2(CC1)NC(=O)N(Cc1ccc(C#N)cc1)C2=O (racemic) [Example 22, 4-((8-(1-(benzo[d]thiazol-5-yl)ethyl)-2,4-dioxo-1,3,8-triazaspiro[4.5]decan-3-yl)methyl)benzonitrile] | 50 to 200
CC(c1ccc2c(c1)OCC2)N1CCC2(CC1)NC(=O)N(Cc1cncnc1)C2=O (racemic) [Example 4, 8-(1-(2,3-dihydrobenzofuran-6-yl)ethyl)-3-(pyrimidin-5-ylmethyl)-1,3,8-triazaspiro[4.5]decane-2,4-dione] | 50 to 200
CC(c1ccc2scnc2c1)N1CCC2(CC1)CC(=O)N(Cc1ccc(S(C)(=O)=O)cc1)C2 (racemic) [Example 17, 8-(1-(benzo[d]thiazol-5-yl)ethyl)-2-(4-(methylsulfonyl)benzyl)-2,8-diazaspiro[4.5]decan-3-one] | 1000 to 10000
CC(c1ccc2scnc2c1)N1CCC2(CC1)C(=O)N(Cc1ccc(C#N)cc1)c1ccccc12 (racemic) [Example 29, 4-((1′-(1-(benzo[d]thiazol-5-yl)ethyl)-2-oxospiro[indoline-3,4′-piperidin]-1-yl)methyl)benzonitrile] | 200 to 1000
CC(=O)Nc1ncc(CN2CCC3(CC2)NC(=O)N(Cc2ccc(C(F)(F)F)nc2)C3=O)s1 [IA1] | 50 to 200
CC(c1ccc2scnc2c1)N1CCC2(CC1)C(=O)Nc1ccccc12 (racemic) [Example 20, 1′-(1-(benzo[d]thiazol-5-yl)ethyl)spiro[indoline-3,4′-piperidin]-2-one] | 200 to 1000
CC(c1ccc2scnc2c1)N1CCC2(CC1)NC(=O)N(c1ccc(Cl)cc1)C2=O (racemic) [Example 65] | 50 to 200
COCCN1C(=O)NC2(CCN(C(C)c3ccc4scnc4c3)CC2)C1=O (racemic) [Example 7, 8-(1-(benzo[d]thiazol-5-yl)ethyl)-3-(2-methoxyethyl)-1,3,8-triazaspiro[4.5]decane-2,4-dione] | 200 to 1000
CC(c1ccc2scnc2c1)N1CCC2(CC1)NC(=O)N(c1cccc(S(C)(=O)=O)c1)C2=O (racemic) [Example 64] | 50 to 200
CC(c1ccc2scnc2c1)N1CCC2(CC1)C(=O)N(Cc1ccc(C#N)cc1)C(=O)N2Cc1ccc(C#N)cc1 (racemic) [Example 23, 4,4′-((8-(1-(benzo[d]thiazol-5-yl)ethyl)-2,4-dioxo-1,3,8-triazaspiro[4.5]decane-1,3-diyl)bis(methylene))dibenzonitrile] | 200 to 1000
CC(c1ccc2scnc2c1)N1CCC2(CC1)CN(Cc1ccc(C#N)cc1)C(=O)N2 (racemic) [Example 32, 4-((8-(1-(benzo[d]thiazol-5-yl)ethyl)-2-oxo-1,3,8-triazaspiro[4.5]decan-3-yl)methyl)benzonitrile] | 50 to 200
CC(c1ccc2scnc2c1)N1CCC2(CC1)NC(=O)N(Cc1ccc(S(C)(=O)=O)cc1)C2=O (stereo not shown) [Example 10] | 50 to 200
CC(c1ccc2scnc2c1)N1CCC2(CC1)CN(c1cccnn1)C(=O)N2 (racemic) [Example 59] | < 50
CC(c1ccc2c(c1)OCC2)N1CCC2(CC1)C(=O)N(Cc1ccc(C#N)cc1)C(=O)N2C (racemic) [Example 74] | 1000 to 10000
CC(=O)Nc1ncc(CN2CCC3(CC2)NC(=O)N(Cc2cc(C)nc(C)c2)C3=O)s1 (racemic) [IA4] | < 50
CC(c1ccc2scnc2c1)N1CCC2(CC1)NC(=O)N(Cc1ccc(C(F)(F)F)nc1)C2=O (racemic) [Example 8] | 50 to 200
CC(c1ccc2c(c1)OCC2)N1CCC2(CC1)NC(=O)N(Cc1ccc(S(C)(=O)=O)cc1)C2=O (racemic) [Example 11] | < 50
CC(c1ccc2c(c1)OCC2)N1CCC2(CC1)CC(=O)N(Cc1ccc(S(C)(=O)=O)cc1)C2 (racemic) [Example 18, 8-(1-(2,3-dihydrobenzofuran-6-yl)ethyl)-2-(4-(methylsulfonyl)benzyl)-2,8-diazaspiro[4.5]decan-3-one] | 200 to 1000
CC(c1ccc2c(c1)OCC2)N1CCC2(CC1)C(=O)N(c1ccc(C#N)cc1)C(=O)N2C (racemic) [Example 76] | 1000 to 10000
CC(c1ccc2scnc2c1)N1CCC2(CC1)NC(=O)N(c1ccc(C#N)cc1)C2=O (racemic) [Example 13, 4-(8-(1-(benzo[d]thiazol-5-yl)ethyl)-2,4-dioxo-1,3,8-triazaspiro[4.5]decan-3-yl)benzonitrile] | 50 to 200
CC(c1ccc2scnc2c1)N1CCC2(CC1)CN(c1cccc(S(C)(=O)=O)c1)C(=O)N2 (racemic) [Example 35, 8-(1-(benzo[d]thiazol-5-yl)ethyl)-3-(3-(methylsulfonyl)phenyl)-1,3,8-triazaspiro[4.5]decan-2-one] | 50 to 200
CC(c1ccc2scnc2c1)N1CCC2(CCN(Cc3ccc(C#N)cc3)C2=O)CC1 (racemic) [Example 26, 4-((8-(1-(benzo[d]thiazol-5-yl)ethyl)-1-oxo-2,8-diazaspiro[4.5]decan-2-yl)methyl)benzonitrile] | 200 to 1000
CC(=O)Nc1ncc(CN2CCC3(CC2)NC(=O)N(Cc2ccnc(C)c2)C3=O)s1 (racemic) [IA5] | < 50
CC(c1ccc2scnc2c1)N1CCC2(CC1)CN(c1cncnc1)C(=O)N2 (racemic) [Example 37, 8-(1-(benzo[d]thiazol-5-yl)ethyl)-3-(pyrimidin-5-yl)-1,3,8-triazaspiro[4.5]decan-2-one] | 50 to 200
CC(c1ccc2scnc2c1)N1CCC2(CC1)C(=O)N(Cc1ccc(S(C)(=O)=O)cc1)C(=O)N2C (racemic) [Example 77] | 1000 to 10000
Cc1cc(N2C(=O)NC3(CCN(C(C)c4ccc5scnc5c4)CC3)C2=O)cc(C)n1 (racemic) [Example 60] | < 50
CC(c1ccc2c(c1)OCC2)N1CCC2(CC1)NC(=O)N(C)C2=O (racemic) [Example 2, 8-(1-(2,3-dihydrobenzofuran-6-yl)ethyl)-3-methyl-1,3,8-triazaspiro[4.5]decane-2,4-dione] | 200 to 1000
Cc1cc(CN2C(=O)NC3(CCN(C(C)c4ccc5scnc5c4)CC3)C2=O)cc(C)n1 (racemic) [Example 66] | 50 to 200
CC(c1ccc2c(c1)OCC2)N1CCC2(CC1)C(=O)Nc1ccccc12 (racemic) [Example 21, 1′-(1-(2,3-dihydrobenzofuran-6-yl)ethyl)spiro[indoline-3,4′-piperidin]-2-one] | 200 to 1000
